Values of other authors, collected in patent publication US9511011B2, “TRPV1 inhibitory peptides and composition for skin-aging protection or wrinkle improvement comprising the same” (SNU R&DB FOUNDATION, priority 2012, dated 2016).

Target: T1, TRPV1 (Homo sapiens, UniProt Q8NER1)
T1 construct: Capsaicin stimulus increases intracellular Ca^2+ level in keratinocytes, which is suppressed by capsazepine; host or cells: keratinocytes (endogenous TRPV1)
Conditions: keratinocytes

T1 sequence (Q8NER1 whole entry): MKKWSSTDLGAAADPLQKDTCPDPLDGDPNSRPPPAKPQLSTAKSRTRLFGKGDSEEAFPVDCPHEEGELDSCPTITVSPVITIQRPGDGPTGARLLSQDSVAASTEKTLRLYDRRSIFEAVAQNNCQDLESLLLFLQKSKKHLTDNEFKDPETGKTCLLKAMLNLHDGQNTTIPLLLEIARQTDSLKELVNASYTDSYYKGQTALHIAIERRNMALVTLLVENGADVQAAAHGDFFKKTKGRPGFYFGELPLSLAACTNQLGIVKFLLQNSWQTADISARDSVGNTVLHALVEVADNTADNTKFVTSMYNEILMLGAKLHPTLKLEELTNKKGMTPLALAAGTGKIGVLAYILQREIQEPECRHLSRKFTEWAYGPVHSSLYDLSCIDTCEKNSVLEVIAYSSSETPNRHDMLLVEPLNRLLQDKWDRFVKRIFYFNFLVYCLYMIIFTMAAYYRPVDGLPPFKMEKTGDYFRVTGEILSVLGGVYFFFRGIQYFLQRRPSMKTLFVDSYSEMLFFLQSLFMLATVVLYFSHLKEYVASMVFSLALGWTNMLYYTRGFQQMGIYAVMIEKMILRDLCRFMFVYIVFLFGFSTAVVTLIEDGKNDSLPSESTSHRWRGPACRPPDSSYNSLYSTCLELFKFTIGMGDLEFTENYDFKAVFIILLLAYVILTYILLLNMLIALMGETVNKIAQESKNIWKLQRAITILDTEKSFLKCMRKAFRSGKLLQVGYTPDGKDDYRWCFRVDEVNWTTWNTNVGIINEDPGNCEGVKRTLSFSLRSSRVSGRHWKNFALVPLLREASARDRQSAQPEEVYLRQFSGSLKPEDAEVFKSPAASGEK

## Oc1cc2c(cc1O)CN(C(=S)NCCc1ccc(Cl)cc1)CCC2 [capsazepine]
  intracellular Ca2+ level increased by capsaicin stimulus: suppressed
